This is an account of results in patent US20260257987A1, “COMPOUNDS AND METHOD FOR UPREGULATION OF P53 THROUGH INDUCTION OF MDM2 DEGRADATION” (Georgia State University Research Foundation, Inc., priority 2022, published 2026).

Data set [1] can be described thus: Thiol (NAC) reactivity study by HPLC. Format: physicochemical. The protocol: HPLC was performed on Shimadzu LC-20AT HPLC system. Condition: mobile phase A: water with 0.05% TFA; B: acetonitrile with 0.05% TFA; gradient: 5-95% B, 0-10 min; […]; 5% B 12.1-15 min. Column: C18, 3.5 μm, 4.6×150 mm; UV detector monitored at 254 nm. For the thiol reactivity assay, a 0.3 mM solution of AQ-analogs was prepared in 0.5 mL PBS: MeOH (80:20) and warmed at 37° C. Next, 25 μL of NAC (from 30 mM stock solution in PBS) was added to the above solution. The resultant solution had final concentrations of 0.3 mM AQ-analogs and 1.5 mM NAC. 20 μL of the reaction mixture was injected into the HPLC at the designated time intervals. The area percentage values were determined via the integration of the area under the curve (AUC) of the chromatogram.

In data set [2] the test system is RS4;11 cells (wild-type p53). As to the kind of experiment: Cytotoxicity test of BW-AQ-365 (CCK-8) in RS4;11 cells. The class given is cell-based. Conditions: for IC50: Homo sapiens, RS4. The protocol:
Cell viability was assessed by using Cell Counting Kit-8 (CCK-8, Dojindo, Japan). RS4;11 cells (wild-type p53) were cultured in RPMI-1640 medium (Corning, USA). The culture mediums were supplemented with 10% fetal bovine serum (Corning, USA) and 100 unit/ml penicillin, and […] streptomycin. […] Compounds were dissolved in DMSO (molecular biology grade, Sigma-Aldrich, USA) to make 10 mM stock solutions, which were serially diluted with the culture medium to various concentrations (final DMSO concentration=0.5%). A culture medium (50 μL) containing BW-AQ-365 was added directly to the cell suspension in each well immediately after seeding. After incubation for 24-72 h at 37° C. in a humidified atmosphere with 5% CO2, 10 μL of CCK-8 solution was added to each well, and the plate was incubated for an additional 2-4 h at 37° C. before measuring the optical density at 450 nm with a microplate reader (PerkinElmer Victor 2, USA). The cell viability of each well was calculated as the percentage of the untreated control according to the manufacturer's manual. All tests were performed in triplicates, and IC50 values were determined by non-linear regression using GraphPad Prism 9.0.

Data set [3] concerns EU-1 (in-house cell line). Description: Cytotoxicity test of BW-AQ-365 (CCK-8) in EU-1 cells. The class given is cell-based. Conditions: EU-1, 25000 cells/well, 24 h.
Data set [4] deals with MDM2 level in RS4;11 cells. Description: Preliminary study of MDM2 level in RS4;11 cells. Format: cell-based.

As a reminder, the IC50 is the midpoint of a concentration-inhibition curve. As to `CC(=O)CCCOc1cccc2c1C(=O)c1c(OCCCC(C)=O)cc(NC(=O)CN=[N+]=[N-])cc1C2=O` [BW-AQ-365, 2-azido-N-(9,10-dioxo-4,5-bis ((4-oxopentyl)oxy)-9,10-dihydroanthracen-2-yl)acetamide], the “reactivity towards thiol, in words” value in data set [1] is “less reactivity towards thiol”. In addition, the IC50 turned out to be 190 ± 10 nM in data set [2] (RS4-11, 48 h, 11, 10000 cells/well, 48 h); 610 ± 30 nM in data set [2] (RS4-11, 48 h, 11, 25000 cells/well, 48 h); 5500 ± 320 nM in data set [2] (RS4-11, 72 h, 11, 25000 cells/well, 72 h); 1550 ± 440 nM in data set [3]. Also, the “anticancer activity in RS4;11 cells compared with BW-AQ-295” value in data set [2] (RS4;11 cells) was “more potent than BW-AQ-295”. In addition, the “MDM2 level in RS4;11 cells” value in data set [4] is on record as “dose-dependently decrease MDM2 level”.
